Assay results taken from ChEMBL document CHEMBL3352153, “Diastereoselective synthesis of potent antimalarial cis-β-lactam agents through a [2 + 2] cycloaddition of chiral imines with a chiral ketene” (Eur J Med Chem, 2014).

System: Plasmodium falciparum
Assay: Antimalarial activity against chloroquine-resistant Plasmodium falciparum K14 infected in human red blood cells after 48 hrs by [3H]hypoxanthine incorporation assay
Format: functional, organism-based

Structure (SMILES)	IC50 [µM]
COc1ccc(N2C(=O)[C@H](O[C@@H]3C[C@H](C)CC[C@H]3C(C)C)[C@@H]2c2ccc(Cl)cc2)cc1	> 50
COc1ccc(N2C(=O)[C@@H](O[C@@H]3C[C@H](C)CC[C@H]3C(C)C)[C@H]2c2ccc(Cl)cc2)cc1	> 50
C[C@@H](c1ccccc1)N1C(=O)[C@H](Oc2ccccc2)[C@@H]1c1ccc(Cl)cc1	42
C[C@@H](c1ccccc1)N1C(=O)[C@@H](Oc2ccccc2)[C@H]1c1ccc(Cl)cc1	42
CC(C)[C@@H]1CC[C@@H](C)C[C@H]1O[C@@H]1C(=O)N([C@@H](C)c2ccccc2)[C@@H]1c1ccc(Cl)cc1	33
CC(C)[C@@H]1CC[C@@H](C)C[C@H]1O[C@@H]1C(=O)N([C@@H](C)c2ccccc2)[C@@H]1c1ccccc1Cl	36
CC(C)[C@@H]1CC[C@@H](C)C[C@H]1O[C@@H]1C(=O)N([C@@H](C)c2ccccc2)[C@@H]1/C=C/c1ccccc1	> 50
COc1ccc([C@@H]2[C@H](O[C@@H]3C[C@H](C)CC[C@H]3C(C)C)C(=O)N2[C@@H](C)c2ccccc2)cc1	13
COc1cccc([C@@H]2[C@H](O[C@@H]3C[C@H](C)CC[C@H]3C(C)C)C(=O)N2[C@@H](C)c2ccccc2)c1	8
COc1ccc([C@@H]2[C@H](O[C@@H]3C[C@H](C)CC[C@H]3C(C)C)C(=O)N2[C@@H](C)c2ccccc2)cc1OC	8
Cc1ccc([C@@H]2[C@H](O[C@@H]3C[C@H](C)CC[C@H]3C(C)C)C(=O)N2[C@@H](C)c2ccccc2)cc1	35
Cc1cccc([C@@H]2[C@H](O[C@@H]3C[C@H](C)CC[C@H]3C(C)C)C(=O)N2[C@@H](C)c2ccccc2)c1	42
CC(C)[C@@H]1CC[C@@H](C)C[C@H]1O[C@@H]1C(=O)N([C@@H](C)c2ccccc2)[C@@H]1c1ccc(F)cc1	19
CC(C)[C@@H]1CC[C@@H](C)C[C@H]1O[C@@H]1C(=O)N([C@@H](C)c2ccccc2)[C@@H]1c1ccc(Br)cc1	11
CC(C)[C@@H]1CC[C@@H](C)C[C@H]1O[C@@H]1C(=O)N([C@@H](C)c2ccccc2)[C@@H]1c1ccc([N+](=O)[O-])cc1	27
CC(C)[C@@H]1CC[C@@H](C)C[C@H]1O[C@@H]1C(=O)N([C@@H](C)c2ccccc2)[C@@H]1c1ccccc1[N+](=O)[O-]	21
CC(C)[C@@H]1CC[C@@H](C)C[C@H]1O[C@@H]1C(=O)N([C@@H](C)c2ccccc2)[C@@H]1c1ccc2ccccc2c1	10
